Reference: patent US20250145606A1 (Arcus Biosciences, Inc., priority 2023, published 2025)
Where two headings read alike, the source gives them in different places.

What was measured:
beagle dog hepatocytes = assay: Bioactivation assessment in dog hepatocytes; format: in vitro ADME; conditions: 5 μM, 4 hours
Procedure: (§1) Bioactivation Assessment Procedure
(§2) Pooled male Sprague Dawley rat (BioIVT), male beagle dog (BioIVT), male cynomolgus monkey (BioIVT), and a 50-donor pool of cryopreserved human hepatocytes (BioIVT) was thawed in pre-warmed 37° C. InVitroGro™ HT media (BioIVT), centrifuged, and resuspended in the InVitroGro™ HI media (BioIVT). The number of viable cells was determined by the Trypan blue exclusion method. The cells were diluted to a concentration of two million viable cells per milliliter (viability >80%) and seeded into round-bottom 96-well plates. The test articles were dissolved in DMSO and further diluted in 50% CH3CN and InVitroGro™ HI media with final concentrations of 0.05% DMSO and 0.5% CH3CN in the incubation mixture. Incubation was performed at a final concentration of one million cells per milliliter and 5 μM test compounds with continuous shaking at 1100 rpm in a 37° C., 5/95% CO2/air incubator with 100% relative humidity. After 4 hours, the samples were quenched by addition of 3 volumes of CH3CN, vortexed for 15 minutes, and centrifuged at 4200 rpm for 15 minutes at 10° C. (Sorvall Legend XTR centrifuge, Thermo Scientific, Langenselbold, Germany). 80 μL of the resulting supernatant was transferred into a new plate and mixed with 160 μL water followed by liquid chromatography-high resolution mass spectrometry (LC-HRMS) analysis.
(§3) Structural assignments of metabolites were determined through mass spectral analysis. The level of bioactivation was estimated based on the relative peak area of bioactivation products to all identified metabolites. The following equation was used: […]
(§4) Bioactivation products included glutathione conjugates, imine methides, quinones, diols, and other relevant metabolites.

[1] = test system: Sprague Dawley rat hepatocytes; assay: Bioactivation assessment in rat hepatocytes; format: in vitro ADME; conditions: 5 μM, 4 hours
Procedure: as §1, §2, §3, §4

[2] = test system: cynomolgus monkey hepatocytes; assay: Bioactivation assessment in monkey hepatocytes; format: in vitro ADME; conditions: 5 μM, 4 hours
Procedure: as §1, §2, §3, §4

human hepatocytes = assay: Bioactivation assessment in human hepatocytes; format: in vitro ADME; conditions: 5 μM, 4 hours
Procedure: as §1, §2, §3, §4

PDGFRβ = PDGFRβ (Homo sapiens (Human), UniProt P09619); assay: Inhibition of PDGFRβ kinase activity (HTRF KinEASE-TK); conditions: biochemical, HTRF KinEASE-TK
Chain of PDGFRβ (P09619 33-1106): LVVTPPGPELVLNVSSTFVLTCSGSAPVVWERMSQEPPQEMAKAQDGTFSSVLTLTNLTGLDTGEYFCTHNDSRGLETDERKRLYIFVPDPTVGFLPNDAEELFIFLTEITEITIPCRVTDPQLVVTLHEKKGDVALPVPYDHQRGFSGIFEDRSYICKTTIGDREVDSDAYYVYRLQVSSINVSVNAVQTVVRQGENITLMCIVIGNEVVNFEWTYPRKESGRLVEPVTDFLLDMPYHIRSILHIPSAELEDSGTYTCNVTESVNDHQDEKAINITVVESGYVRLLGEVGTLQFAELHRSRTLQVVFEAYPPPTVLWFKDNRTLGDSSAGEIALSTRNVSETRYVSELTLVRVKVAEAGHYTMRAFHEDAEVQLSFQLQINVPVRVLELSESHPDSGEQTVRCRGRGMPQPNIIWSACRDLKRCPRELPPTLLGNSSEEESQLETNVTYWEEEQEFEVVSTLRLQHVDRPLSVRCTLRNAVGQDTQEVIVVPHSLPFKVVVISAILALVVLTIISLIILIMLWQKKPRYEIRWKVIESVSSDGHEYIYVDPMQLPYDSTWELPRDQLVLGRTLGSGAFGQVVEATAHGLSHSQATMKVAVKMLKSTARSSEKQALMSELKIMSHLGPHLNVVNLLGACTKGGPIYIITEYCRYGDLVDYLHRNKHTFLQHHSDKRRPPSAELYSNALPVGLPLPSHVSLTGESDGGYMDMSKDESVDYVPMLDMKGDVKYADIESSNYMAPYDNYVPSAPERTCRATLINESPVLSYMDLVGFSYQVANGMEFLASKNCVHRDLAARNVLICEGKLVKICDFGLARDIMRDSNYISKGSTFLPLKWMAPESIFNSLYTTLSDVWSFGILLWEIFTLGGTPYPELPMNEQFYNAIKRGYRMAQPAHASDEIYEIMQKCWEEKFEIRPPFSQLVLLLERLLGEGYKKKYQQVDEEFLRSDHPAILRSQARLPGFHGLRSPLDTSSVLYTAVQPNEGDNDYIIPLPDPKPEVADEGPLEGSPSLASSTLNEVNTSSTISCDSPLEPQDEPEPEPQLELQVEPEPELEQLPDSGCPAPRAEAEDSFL
Procedure, shortened: (§5)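 Recombinant kinases (2 nM CSF1R and c-Kit, 10 nM PDGFRα/β, 2× working) preincubated 1 h with compound in 50 mM HEPES pH 7.4, 5 mM MgCl2 (c-Kit) or 10 mM (others), 2 mM MnCl2; 2× ATP: c-Kit 16 μM, PDGFRα 1 μM, PDGFRβ 40 μM, CSF1R 20 μM. 120 min reaction at rt; TR-FRET 665/620 nm; IC50 by 4-parameter fit.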

c-Kit = c-Kit (Homo sapiens (Human), UniProt P10721); assay: Inhibition of c-Kit kinase activity (HTRF KinEASE-TK); format: biochemical; conditions: biochemical, HTRF KinEASE-TK
Chain of c-Kit (P10721 26-976): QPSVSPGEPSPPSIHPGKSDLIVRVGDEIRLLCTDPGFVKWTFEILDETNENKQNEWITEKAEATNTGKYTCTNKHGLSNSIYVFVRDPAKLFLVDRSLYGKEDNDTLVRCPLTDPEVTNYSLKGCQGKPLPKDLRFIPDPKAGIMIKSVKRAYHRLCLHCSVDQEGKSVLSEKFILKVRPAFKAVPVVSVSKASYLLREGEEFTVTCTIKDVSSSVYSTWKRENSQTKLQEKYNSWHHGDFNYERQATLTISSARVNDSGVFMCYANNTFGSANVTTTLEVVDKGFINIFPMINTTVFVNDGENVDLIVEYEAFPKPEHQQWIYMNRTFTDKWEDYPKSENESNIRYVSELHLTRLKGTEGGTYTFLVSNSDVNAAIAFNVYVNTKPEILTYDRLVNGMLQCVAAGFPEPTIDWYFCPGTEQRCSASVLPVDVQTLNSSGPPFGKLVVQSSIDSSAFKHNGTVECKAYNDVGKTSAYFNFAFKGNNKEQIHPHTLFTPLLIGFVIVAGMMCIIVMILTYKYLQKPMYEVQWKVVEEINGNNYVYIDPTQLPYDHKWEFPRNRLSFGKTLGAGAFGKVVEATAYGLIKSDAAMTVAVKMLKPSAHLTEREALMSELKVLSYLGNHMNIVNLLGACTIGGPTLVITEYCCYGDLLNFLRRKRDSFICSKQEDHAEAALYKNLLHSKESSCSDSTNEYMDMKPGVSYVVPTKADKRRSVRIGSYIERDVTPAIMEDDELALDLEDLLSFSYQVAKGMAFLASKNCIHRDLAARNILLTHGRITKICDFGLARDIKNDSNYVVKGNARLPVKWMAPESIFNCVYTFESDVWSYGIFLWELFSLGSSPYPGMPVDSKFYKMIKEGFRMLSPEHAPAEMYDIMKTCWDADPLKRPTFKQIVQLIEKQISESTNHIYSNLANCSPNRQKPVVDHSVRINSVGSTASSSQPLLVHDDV
Procedure, shortened: as §5

PDGFRα = PDGFRα (Homo sapiens (Human), UniProt P16234); assay: Inhibition of PDGFRα kinase activity (HTRF KinEASE-TK); conditions: biochemical, HTRF KinEASE-TK
Chain of PDGFRα (P16234 24-1089): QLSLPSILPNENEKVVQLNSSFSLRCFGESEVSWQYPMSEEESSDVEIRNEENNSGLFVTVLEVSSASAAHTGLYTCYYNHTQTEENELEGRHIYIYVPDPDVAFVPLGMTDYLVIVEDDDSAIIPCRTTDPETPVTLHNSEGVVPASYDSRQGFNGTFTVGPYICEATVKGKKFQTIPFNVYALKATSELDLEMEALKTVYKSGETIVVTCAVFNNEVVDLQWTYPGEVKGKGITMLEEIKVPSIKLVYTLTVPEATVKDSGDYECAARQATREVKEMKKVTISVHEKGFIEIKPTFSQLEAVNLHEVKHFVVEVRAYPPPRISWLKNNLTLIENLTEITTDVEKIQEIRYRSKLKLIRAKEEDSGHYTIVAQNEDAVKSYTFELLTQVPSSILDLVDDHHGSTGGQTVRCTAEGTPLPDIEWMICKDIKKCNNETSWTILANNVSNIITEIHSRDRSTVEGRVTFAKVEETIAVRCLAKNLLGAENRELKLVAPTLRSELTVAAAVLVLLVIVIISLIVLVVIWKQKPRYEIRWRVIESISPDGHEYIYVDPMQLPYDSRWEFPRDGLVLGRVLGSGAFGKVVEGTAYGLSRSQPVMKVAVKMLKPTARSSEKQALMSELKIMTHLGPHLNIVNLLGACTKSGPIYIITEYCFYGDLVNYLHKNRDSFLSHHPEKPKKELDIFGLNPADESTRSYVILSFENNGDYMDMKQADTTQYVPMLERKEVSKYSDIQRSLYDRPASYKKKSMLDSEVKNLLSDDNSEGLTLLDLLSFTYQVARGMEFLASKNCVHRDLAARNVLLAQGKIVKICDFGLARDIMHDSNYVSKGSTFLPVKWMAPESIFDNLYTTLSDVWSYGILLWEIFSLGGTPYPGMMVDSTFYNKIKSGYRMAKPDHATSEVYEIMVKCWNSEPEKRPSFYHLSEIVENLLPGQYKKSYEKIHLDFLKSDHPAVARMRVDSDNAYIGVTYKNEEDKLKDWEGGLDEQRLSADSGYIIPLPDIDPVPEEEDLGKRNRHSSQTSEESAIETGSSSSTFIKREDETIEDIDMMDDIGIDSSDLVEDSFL
Procedure, shortened: as §5

[3] = test system: Phospho-KIT (Y703) in M07e cells; assay: Phospho-KIT (Y703) cellular assay in M07e cells; format: cell-based; conditions: M-07e, read-out: M07e Cell IC50
Procedure, shortened: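 Serum-starved M07e cells preincubated 50 min at 37° C with 11-point half-log compound titration, then stimulated 10 min with SCF at 90.9 ng/mL final. Fixed, permeabilized cells stained for phospho-KIT Y703 and read by flow cytometry (live-gated geometric mean); IC50 by 4-parameter fit normalized to DMSO and positive control.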

CSF1R = CSF1R (Homo sapiens (Human), UniProt P07333); assay: Inhibition of CSF1R kinase activity (HTRF KinEASE-TK); conditions: biochemical, HTRF KinEASE-TK
Chain of CSF1R (P07333 20-972): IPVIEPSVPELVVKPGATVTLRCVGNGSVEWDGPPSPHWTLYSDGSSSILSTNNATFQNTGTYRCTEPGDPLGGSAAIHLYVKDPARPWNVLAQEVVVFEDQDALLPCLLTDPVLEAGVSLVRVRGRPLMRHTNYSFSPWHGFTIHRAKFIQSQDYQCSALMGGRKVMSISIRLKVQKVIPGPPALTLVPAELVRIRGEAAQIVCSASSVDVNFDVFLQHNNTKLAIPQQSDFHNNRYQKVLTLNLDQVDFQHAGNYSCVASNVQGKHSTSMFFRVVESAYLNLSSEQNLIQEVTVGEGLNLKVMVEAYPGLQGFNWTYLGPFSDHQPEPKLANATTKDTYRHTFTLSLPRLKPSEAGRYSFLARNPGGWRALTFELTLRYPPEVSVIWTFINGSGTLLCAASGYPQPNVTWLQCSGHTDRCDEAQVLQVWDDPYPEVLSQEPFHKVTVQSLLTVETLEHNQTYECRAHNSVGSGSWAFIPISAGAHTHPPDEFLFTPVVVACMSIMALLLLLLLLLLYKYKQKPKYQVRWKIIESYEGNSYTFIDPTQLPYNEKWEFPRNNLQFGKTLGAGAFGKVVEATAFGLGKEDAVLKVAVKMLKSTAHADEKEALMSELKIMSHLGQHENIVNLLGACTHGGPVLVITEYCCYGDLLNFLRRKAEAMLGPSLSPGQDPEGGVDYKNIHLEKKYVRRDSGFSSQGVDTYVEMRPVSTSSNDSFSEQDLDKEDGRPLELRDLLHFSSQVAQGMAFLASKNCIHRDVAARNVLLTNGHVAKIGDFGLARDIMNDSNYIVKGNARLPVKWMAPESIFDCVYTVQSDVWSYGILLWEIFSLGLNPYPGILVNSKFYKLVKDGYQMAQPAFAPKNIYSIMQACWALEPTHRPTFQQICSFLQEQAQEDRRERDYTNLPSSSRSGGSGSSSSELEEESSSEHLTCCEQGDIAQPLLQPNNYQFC
Procedure, shortened: as §5

FLT3 = FLT3 (Homo sapiens (Human), UniProt P36888); assay: Inhibition of FLT3 kinase activity (HTRF KinEASE-TK); format: biochemical; conditions: biochemical, HTRF KinEASE-TK
Chain of FLT3 (P36888 27-993): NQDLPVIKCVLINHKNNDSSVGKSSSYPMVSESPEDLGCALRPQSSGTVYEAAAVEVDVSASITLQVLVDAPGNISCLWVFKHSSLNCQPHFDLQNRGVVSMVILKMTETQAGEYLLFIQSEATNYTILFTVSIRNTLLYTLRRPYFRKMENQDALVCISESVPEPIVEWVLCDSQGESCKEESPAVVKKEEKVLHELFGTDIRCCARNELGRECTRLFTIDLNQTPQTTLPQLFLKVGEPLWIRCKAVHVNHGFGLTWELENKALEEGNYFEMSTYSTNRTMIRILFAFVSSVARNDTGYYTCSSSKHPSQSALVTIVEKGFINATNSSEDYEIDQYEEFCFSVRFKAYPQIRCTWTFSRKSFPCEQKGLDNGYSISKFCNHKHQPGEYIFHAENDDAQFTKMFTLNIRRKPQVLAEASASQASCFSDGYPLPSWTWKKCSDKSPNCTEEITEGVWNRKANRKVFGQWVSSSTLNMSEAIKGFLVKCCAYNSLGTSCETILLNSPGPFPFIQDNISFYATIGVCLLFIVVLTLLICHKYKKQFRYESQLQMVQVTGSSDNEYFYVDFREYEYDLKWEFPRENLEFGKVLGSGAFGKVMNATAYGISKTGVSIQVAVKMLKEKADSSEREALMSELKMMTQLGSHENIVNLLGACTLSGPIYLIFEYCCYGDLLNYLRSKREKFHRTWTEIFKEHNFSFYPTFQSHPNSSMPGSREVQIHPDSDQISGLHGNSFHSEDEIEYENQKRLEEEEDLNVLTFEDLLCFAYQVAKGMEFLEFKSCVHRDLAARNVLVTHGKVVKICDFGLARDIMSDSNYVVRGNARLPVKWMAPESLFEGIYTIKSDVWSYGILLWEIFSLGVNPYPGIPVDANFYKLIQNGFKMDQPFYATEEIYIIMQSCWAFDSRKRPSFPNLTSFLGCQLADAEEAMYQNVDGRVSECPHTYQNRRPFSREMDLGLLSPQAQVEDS
Procedure, shortened: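 FLT3 tyrosine kinase activity was measured with the HTRF KinEASE-TK kit by following phosphorylation of a biotinylated TK peptide. After the 45 min reaction, 10 μL of detection mix was added: 0.2 μM (2×) Streptavidin-XL665 and 2 μM (2×) TK-Antibody-Cryptate in detection buffer. After 60 min, TR-FRET was read on an Envision as the 665 nm/620 nm emission ratio with 320 nm excitation.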

Row | Percent of total metabolism via bioactivation, Dog hepatocytes (beagle dog hepatocytes) [%] | Percent of total metabolism via bioactivation, Rat hepatocytes [1] [%] | Percent of total metabolism via bioactivation, Monkey hepatocytes [2] [%] | Percent of total metabolism via bioactivation, Human hepatocytes (human hepatocytes) [%] | IC50 (PDGFRβ) [µM] | IC50 (c-Kit) [µM] | IC50 (PDGFRα) [µM] | IC50 ([3]; Phospho-KIT (Y703), M07e cells) [µM] | IC50 (CSF1R) [µM] | IC50 (FLT3) [µM] | Compound | IC50 [3] [µM]
1 | 17 | 45 | 31 | 24 | – | – | – | – | – | – | Cc1ccc(-c2noc([C@H]3C[C@@H]3F)n2)cc1NC(=O)c1cnc2ccccn12 [labuxtinib, reference compound] | –
2 | – | – | – | – | > 1 | < 0.1 | > 1 | < 0.1 | > 1 | > 1 | Cc1ncc(C(=O)Nc2cc(C(=O)Nc3ccc(C(C)(F)F)cn3)c(F)cc2C)s1 [Example 20, N-[5-[[5-(1,1-Difluoroethyl)pyridin-2-yl]carbamoyl]-4-fluoro-2-methylphenyl]-2-methyl-1,3-thiazole-5-carboxamide] | –
3 | – | – | – | – | > 1 | < 0.1 | 0.1 to 1 | < 0.1 | > 1 | > 1 | Cc1ncc(C(=O)Nc2cc(C(=O)Nc3cnc(OCC(F)F)cn3)c(F)cc2C)s1 [Example 86, N-{5-[N-5-(2,2-difluoroethoxy)-2-pyrazinylcarbamoyl]-4-fluoro-2-tolyl}-2-methyl-1,3-thiazole-5-carboxamide] | –
4 | – | – | – | – | 0.1 to 1 | < 0.1 | > 1 | < 0.1 | > 1 | > 1 | Cc1ncc(C(=O)Nc2cc(C(=O)Nc3ccc(C4(C(F)(F)F)CC4)cn3)c(F)cc2C)s1 [Example 67] | –
5 | – | – | – | – | 0.1 to 1 | < 0.1 | > 1 | < 0.1 | 0.1 to 1 | > 1 | Cc1cc(F)c(C(=O)Nc2ccc(C3(C#N)CC3)cn2)cc1NC(=O)c1cnc(N)s1 [Example 118, 2-Amino-N-[5-[[5-(1-cyanocyclopropyl)pyridin-2-yl]carbamoyl]-4-fluoro-2-methylphenyl]-1,3-thiazole-5-carboxamide] | –
6 | – | – | – | – | > 1 | < 0.1 | > 1 | < 0.1 | > 1 | > 1 | Cc1cc(F)c(C(=O)Nc2ccccn2)cc1NC(=O)c1cnc(N)s1 [Example 132, 2-Amino-N-[4-fluoro-2-methyl-5-(pyridin-2-ylcarbamoyl)phenyl]-1,3-thiazole-5-carboxamide] | –
7 | 44 | 88 | – | <1 | > 1 | 0.1 to 1 | > 1 | – | > 1 | – | Cc1ncc(C(=O)Nc2cc(C(=O)Nc3ccc(CC(F)(F)F)cn3)c(F)cc2F)s1 [Example 242, N-[2,4-difluoro-5-[[5-(2,2,2-trifluoroethyl)pyridin-2-yl]carbamoyl]phenyl]-2-methyl-1,3-thiazole-5-carboxamide] | –
8 | – | – | – | – | > 1 | < 0.1 | > 1 | < 0.1 | > 1 | > 1 | Cc1cc(F)c(C(=O)Nc2ccn([C@H]3CCOC3)n2)cc1NC(=O)c1cnc(N)s1 [Example 191, 2-Amino-N-[4-fluoro-2-methyl-5-[[1-[(3S)-oxolan-3-yl]pyrazol-3-yl]carbamoyl]phenyl]-1,3-thiazole-5-carboxamide] | –
9 | – | – | – | – | > 1 | < 0.1 | > 1 | < 0.1 | > 1 | > 1 | COCc1ccc(NC(=O)c2cc(NC(=O)c3cnc(N)s3)c(Cl)cc2F)nc1 [Example 202, 2-Amino-N-[2-chloro-4-fluoro-5-[[5-(methoxymethyl)pyridin-2-yl]carbamoyl]phenyl]-1,3-thiazole-5-carboxamide] | –
10 | – | – | – | – | > 1 | < 0.1 | > 1 | < 0.1 | > 1 | > 1 | CCn1ccc(NC(=O)c2cc(NC(=O)c3cnc(N)s3)c(C)cc2F)n1 [Example 179, 2-Amino-N-[5-[(1-ethylpyrazol-3-yl)carbamoyl]-4-fluoro-2-methylphenyl]-1,3-thiazole-5-carboxamide] | –
11 | – | – | – | – | > 1 | < 0.1 | > 1 | < 0.1 | > 1 | > 1 | CCc1ccc(NC(=O)c2cc(NC(=O)c3cnc(C)s3)c(C)cc2F)nc1 [Example 82, N-[5-[(5-ethylpyridin-2-yl)carbamoyl]-4-fluoro-2-methylphenyl]-2-methyl-1,3-thiazole-5-carboxamide] | –

Row | Compound | Percent of total metabolism via bioactivation, Dog hepatocytes (beagle dog hepatocytes) [%] | Percent of total metabolism via bioactivation, Rat hepatocytes [1] [%] | Percent of total metabolism via bioactivation, Monkey hepatocytes [2] [%] | Percent of total metabolism via bioactivation, Human hepatocytes (human hepatocytes) [%] | IC50 (PDGFRβ) [µM] | IC50 (c-Kit) [µM] | IC50 (PDGFRα) [µM] | IC50 ([3]; Phospho-KIT (Y703), M07e cells) [µM] | IC50 (CSF1R) [µM] | IC50 (FLT3) [µM] | IC50 [3] [µM]
12 | Cc1ncc(C(=O)Nc2cc(C(=O)Nc3cncc(COC(F)F)c3)c(F)cc2C)s1 [Example 80, N-[5-[[5-(difluoromethoxymethyl)pyridin-3-yl]carbamoyl]-4-fluoro-2-methylphenyl]-2-methyl-1,3-thiazole-5-carboxamide] | – | – | – | – | > 1 | < 0.1 | > 1 | – | > 1 | > 1 | < 0.1
13 | Cc1ncc(C(=O)Nc2cc(C(=O)Nc3ccc(COC(F)F)cn3)c(F)cc2C)s1 [Example 78, N-[5-[[5-(difluoromethoxymethyl)pyridin-2-yl]carbamoyl]-4-fluoro-2-methylphenyl]-2-methyl-1,3-thiazole-5-carboxamide] | – | – | – | – | > 1 | < 0.1 | > 1 | – | > 1 | > 1 | < 0.1
14 | Cc1ncc(C(=O)Nc2cc(C(=O)Nc3ccc(CC(F)(F)F)cn3)c(C)cc2C)s1 [Example 75, N-(2,4-dimethyl-5-((5-(2,2,2-trifluoroethyl)pyridin-2-yl)carbamoyl)phenyl)-2-methylthiazole-5-carboxamide] | – | – | – | – | > 1 | 0.1 to 1 | > 1 | – | > 1 | > 1 | 0.1 to 1
